These are literature values, as cited in patent publication US20100160456A1 (priority 2007, published 2010).

The conditions of data set [1]: incidence grade.
For data set [2] the following is noted: known emulsion.
The conditions of data set [3]: after being injected with Propofol.

Regarding `CCOC(=O)c1cncn1[C@H](C)c1ccccc1` [ETOM, Etomidate], in data set [1], the Delirium result is given as “+”, the Excitation entry is “++”, the Injection-related pain result was “+” and the Latency result is “+”. The “Nausea & vomiting” value in data set [1] is “+”.
For the molecule `CC(=O)NS(=O)(=O)c1ccc(N)cc1` [KET, Cetamide], in data set [1], the Delirium entry is reported as “+++”, the Excitation result was “+++”, the Latency result is on record as “+” and the “Nausea & vomiting” value is given as “+”.
Turning to `C=CCC1(C(C)C#CCC)C(=O)N=C(O)N(C)C1=O` (stereo not shown) [MTOX, Methohexital], in data set [1], the Awakening result is on record as “+”, the Excitation result is listed as “+”, the Injection-related pain entry was “+” and the Latency result is reported as “++”.
On to `CCCOC(=O)Cc1ccc(OCC(=O)N(CC)CC)c(OC)c1` [PRPN, Propanidine], for which, in data set [1], the Excitation entry was “+”, the Latency result is “+” and the “Nausea & vomiting” value was “++”.
For `CC(C)c1cccc(C(C)C)c1O` [Propofol, 2,6-diisopropylphenol], in data set [2], the “shelf-life of the product once the ampoule is opened” value is reported as “approximately 8 hours”. In data set [1], the Awakening result was “+”, the Injection-related pain entry is listed as “+++” and the Latency result was “++”. The “patients with a rejection to the acute pain after injection” value in data set [3] was 80%.
For `CCCC(C)C1(CC)C(=O)NC(=S)NC1=O` (stereo not shown) [TIOP, Thiopental], in data set [1], the Awakening entry is “+”, the Injection-related pain entry was “+” and the Latency entry is recorded as “++”.
With Althesin [ALTS], in data set [1], the Awakening result is on record as “+”, the Excitation result is listed as “+”, the Latency result is given as “+” and the “Nausea & vomiting” value was “+”.
